{"source": "patent US4226610A", "about": "“Herbicidal compounds, preparation thereof and herbicides containing the same” (Meiji Selka Kaisha, Ltd., priority 1978, dated 1980)", "key": {"warunasubi": {"tested_on": "warunasubi", "experiment": "Experiment 1 foliar application to naturally growing weeds", "type": "in vivo, Solanum carolinensis L.", "conditions": "4 months", "procedure,_shortened": "(§1)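 Read-outs were a 0–5 killing index at 21 days and a reproduction score from (-), no reproduction, to (+++), no suppression. Reproduction was read at 2 months for cockspar grass and 4 months for the other species, after foliar spraying at 150 liter per 10 are with 0.1% surfactant.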"}, "pond scum": {"tested_on": "pond scum", "experiment": "Experiment 7 application to water", "type": "in vivo, Spirogira crassa Kutz.", "set-up": "scale not given here", "source_text": "(§2) A black soil was packed in 50 cm. square concrete pots and water was poured there-onto at 50 cm. in depth. Hornwort (Ceratophyllum demersum L.), stonewort (Chara Braunii Gmel.) and salvinia (Salvinia natans All.) were transplanted and pond scum (Spirogira crassa Kutz) and diatoms (Bacillariophyta) were floated in the water.\n(§3) Then, the compounds of the invention were applied dropwise onto the surface of the water so that the prescribed concentrations in the water are obtained as indicated in Table 9."}, "duckweed": {"tested_on": "duckweed", "experiment": "Experiment 6 spray on aquatic plants in concrete pots", "type": "in vivo, Lemna paucicostata Hegelm", "conditions": "3 months", "source_text": "(§4) The detail of the assessment made in the following Experiments of the invention was as follows:\n(§5) Four months after treatment, evaluation was made for inhibition of reproduction expressed in terms of symbols ranging from (-) to (+++) where (-) means no reproduction, namely complete suppression of reproduction, (±) remarkable suppression of reproduction; (+) considerable suppression of reproduction; (++) medium supprestion of reproduction; and (+++) no suppression of reproduction.\n(§6) A paddy field soil was packed in 50 cm. square concrete pots. omodaka (Sagittaria trifolia L.), urikawa (Sagittaria pygmaea Miq.), prog-bit (Hydrocharis dubia) and aginashi (Sagittaria Aginashi Makino) were transplanted; then water was poured onto the soil at 5 cm. depth.\n(§7) Further, water hyacinth, greater-duckweed (Spirodela polyrhiza Schleid.) and duckweed (Lemna paucicostata Hegelm) were floated on the water.\n(§8) After one month, the compounds of the invention diluted to the prescribed concentrations as indicated in Table 8 were sprayed in an amount of 100 liter per 10 are. As a surfactant, 0.1% of octylphenyl polyoxyethanol was added thereto.\n(§9) The killing index (0, no effect; 5, death) after 21 days and 3 months and the reproduction-inhibiting effect (-, no reproduction; +++, maximum reproduction) after 3 months were determined."}, "Japanese bush cranberry": {"tested_on": "Japanese bush cranberry", "experiment": "Experiment 3 foliar application to naturally growing shrubs", "type": "in vivo, Viburnum dilatatum Thunb.", "conditions": "after 3 months", "procedure,_shortened": "(§10)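 Sprays contained 0.1% octylphenyl polyoxyethanol and compound diluted to prescribed concentrations. They were applied to the leaves of wild shrubs at a rate of 150 liter per 10 are. Damage was rated 0–5 after one and three months, and regrowth − to +++ after three months.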"}, "stonewort": {"tested_on": "stonewort", "experiment": "Experiment 7 application to water", "type": "in vivo, Chara Braunii Gmel.", "set-up": "scale not given here", "source_text": "as §2, §3"}, "progbit": {"tested_on": "progbit", "experiment": "Experiment 6 spray on aquatic plants in concrete pots", "type": "in vivo, Hydrocharis dubia", "conditions": "3 months", "source_text": "as §4, §5, §6, §7, §8, §9"}, "oak": {"tested_on": "oak", "experiment": "Experiment 3 foliar application to naturally growing shrubs", "type": "in vivo, Quercus serrata Thunb", "conditions": "after 3 months", "procedure,_shortened": "as §10"}, "cockspar grass": {"tested_on": "cockspar grass", "experiment": "Experiment 1 foliar application to naturally growing weeds", "type": "in vivo, Echinochloa Crusgalli P. Beauv.", "conditions": "2 months", "procedure,_shortened": "as §1"}, "omodaka": {"tested_on": "omodaka", "experiment": "Experiment 6 spray on aquatic plants in concrete pots", "type": "in vivo, Sagittaria trifolia L.", "conditions": "for Reproduction-inhibiting effect: 3 months", "source_text": "as §4, §5, §6, §7, §8, §9"}, "aginashi": {"tested_on": "aginashi", "experiment": "Experiment 6 spray on aquatic plants in concrete pots", "type": "in vivo, Sagittaria Aginashi Makino", "conditions": "3 months", "source_text": "as §4, §5, §6, §7, §8, §9"}, "kiichigo": {"tested_on": "kiichigo", "experiment": "Experiment 3 foliar application to naturally growing shrubs", "type": "in vivo, Rubus palmatsu Thunb. forma coptophyllus Makino", "conditions": "for Reproduction-inhibiting: after 3 months", "procedure,_shortened": "as §10"}, "Japanese prickly ash": {"tested_on": "Japanese prickly ash", "experiment": "Experiment 3 foliar application to naturally growing shrubs", "type": "in vivo, Xanthoxylum piperitum DC.", "procedure,_shortened": "as §10"}, "hornwort": {"tested_on": "hornwort", "experiment": "Experiment 7 application to water", "type": "in vivo, Ceratophyllum demersum L.", "set-up": "scale not given here", "source_text": "as §2, §3"}, "urikawa": {"tested_on": "urikawa", "experiment": "Experiment 6 spray on aquatic plants in concrete pots", "type": "in vivo, Sagittaria pygmaea Miguel", "conditions": "3 months", "source_text": "as §4, §5, §6, §7, §8, §9"}, "diatoms": {"tested_on": "diatoms", "experiment": "Experiment 7 application to water", "type": "in vivo, Bacillariophyta", "set-up": "scale not given here", "source_text": "as §2, §3"}, "greaterduckweed": {"tested_on": "greaterduckweed", "experiment": "Experiment 6 spray on aquatic plants in concrete pots", "type": "in vivo, Spirodela polyrhiza Sohleid.", "conditions": "3 months", "source_text": "as §4, §5, §6, §7, §8, §9"}, "manna grass": {"tested_on": "manna grass", "experiment": "Experiment 1 foliar application to naturally growing weeds", "type": "in vivo, Digitaria adsceudes Henr.", "conditions": "2 months", "procedure,_shortened": "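Dilute compounds to prescribed concentrations; add 0.1% octylphenyl polyoxyethanol; spray foliage of in-situ weeds at 150 liter per 10 are. Score killing 0–5 on day 21. Score reproduction (-) to (+++) at month 2 (cockspar grass) or month 4 (chigaya, azumanezasa, warunasubi).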"}, "yamazakura": {"tested_on": "yamazakura", "experiment": "Experiment 3 foliar application to naturally growing shrubs", "type": "in vivo, Prunus donarium Sieb. var. spontanae Makino", "conditions": "after 3 months", "procedure,_shortened": "as §10"}, "water hyacinth": {"tested_on": "water hyacinth", "experiment": "Experiment 6 spray on aquatic plants in concrete pots", "type": "in vivo, Eichhornia crassipes Solms", "conditions": "3 months", "source_text": "as §4, §5, §6, §7, §8, §9"}}}
{"smiles": "CP(=O)(O)CC[C@H](N)C(=O)O", "note": "[L-AMPB choline, L-2-Amino-4-methylphosphino-butanoic acid choline]", "values": [{"measurement": "Reproduction-inhibiting effect", "setting": "warunasubi; 0.05%", "result": "±"}, {"measurement": "Reproduction-inhibiting effect", "setting": "warunasubi; 0.1%", "result": "-"}, {"measurement": "Reproduction-inhibiting effect", "setting": "warunasubi; 0.2%", "result": "-"}, {"measurement": "controlling effect", "setting": "pond scum; 1 ppm, 3 months", "result": 4}, {"measurement": "controlling effect", "setting": "pond scum; 1 ppm, 21 days", "result": 4}, {"measurement": "controlling effect", "setting": "pond scum; 3 ppm, 3 months", "result": 5}, {"measurement": "controlling effect", "setting": "pond scum; 3 ppm, 21 days", "result": 5}, {"measurement": "controlling effect", "setting": "pond scum; 10 ppm, 3 months", "result": 5}, {"measurement": "controlling effect", "setting": "pond scum; 10 ppm, 21 days", "result": 5}, {"measurement": "Reproduction-inhibiting effect", "setting": "duckweed; 0.05%", "result": "-"}, {"measurement": "Reproduction-inhibiting effect", "setting": "duckweed; 0.1%", "result": "-"}, {"measurement": "Reproduction-inhibiting effect", "setting": "duckweed; 0.2%", "result": "-"}, {"measurement": "Reproduction-inhibiting", "setting": "Japanese bush cranberry; 0.05%", "result": "+"}, {"measurement": "Reproduction-inhibiting", "setting": "Japanese bush cranberry; 0.1%", "result": "-"}, {"measurement": "Reproduction-inhibiting", "setting": "Japanese bush cranberry; 0.2%", "result": "-"}, {"measurement": "controlling effect", "setting": "stonewort; 1 ppm, 3 months", "result": 5}, {"measurement": "controlling effect", "setting": "stonewort; 1 ppm, 21 days", "result": 4}, {"measurement": "controlling effect", "setting": "stonewort; 3 ppm, 3 months", "result": 5}, {"measurement": "controlling effect", "setting": "stonewort; 3 ppm, 21 days", "result": 5}, {"measurement": "controlling effect", "setting": "stonewort; 10 ppm, 3 months", "result": 5}, {"measurement": "controlling effect", "setting": "stonewort; 10 ppm, 21 days", "result": 5}, {"measurement": "Reproduction-inhibiting effect", "setting": "progbit; 0.05%", "result": "+"}, {"measurement": "Reproduction-inhibiting effect", "setting": "progbit; 0.1%", "result": "-"}, {"measurement": "Reproduction-inhibiting effect", "setting": "progbit; 0.2%", "result": "-"}, {"measurement": "Reproduction-inhibiting", "setting": "oak; 0.05%", "result": "-"}, {"measurement": "Reproduction-inhibiting", "setting": "oak; 0.1%", "result": "-"}, {"measurement": "Reproduction-inhibiting", "setting": "oak; 0.2%", "result": "-"}, {"measurement": "Reproduction-inhibiting effect", "setting": "cockspar grass; 0.05%", "result": "±"}, {"measurement": "Reproduction-inhibiting effect", "setting": "cockspar grass; 0.1%", "result": "-"}, {"measurement": "Reproduction-inhibiting effect", "setting": "cockspar grass; 0.2%", "result": "-"}, {"measurement": "Reproduction-inhibiting effect", "setting": "omodaka; 0.05%", "result": "+"}, {"measurement": "Reproduction-inhibiting effect", "setting": "omodaka; 0.1%", "result": "-"}, {"measurement": "Killing index", "setting": "omodaka; 0.1%, 21 days", "result": 4.5}, {"measurement": "Reproduction-inhibiting effect", "setting": "omodaka; 0.2%", "result": "-"}, {"measurement": "Reproduction-inhibiting effect", "setting": "aginashi; 0.05%", "result": "±"}, {"measurement": "Reproduction-inhibiting effect", "setting": "aginashi; 0.1%", "result": "-"}, {"measurement": "Reproduction-inhibiting effect", "setting": "aginashi; 0.2%", "result": "-"}, {"measurement": "Reproduction-inhibiting", "setting": "kiichigo; 0.05%", "result": "-"}, {"measurement": "Killing index", "setting": "kiichigo; 0.05%, after 30 days", "result": 4.5}, {"measurement": "Reproduction-inhibiting", "setting": "kiichigo; 0.1%", "result": "-"}, {"measurement": "Reproduction-inhibiting", "setting": "kiichigo; 0.2%", "result": "-"}, {"measurement": "Killing index", "setting": "Japanese prickly ash; 0.05%, after 3 months", "result": 4.5}, {"measurement": "Reproduction-inhibiting", "setting": "Japanese prickly ash; 0.05%, after 3 months", "result": "±"}, {"measurement": "Killing index", "setting": "Japanese prickly ash; 0.05%, after 30 days", "result": 4.5}, {"measurement": "Reproduction-inhibiting", "setting": "Japanese prickly ash; 0.1%, after 3 months", "result": "-"}, {"measurement": "Reproduction-inhibiting", "setting": "Japanese prickly ash; 0.2%, after 3 months", "result": "-"}, {"measurement": "controlling effect", "setting": "hornwort; 1 ppm, 3 months", "result": 2}, {"measurement": "controlling effect", "setting": "hornwort; 1 ppm, 21 days", "result": 3}, {"measurement": "controlling effect", "setting": "hornwort; 3 ppm, 3 months", "result": 5}, {"measurement": "controlling effect", "setting": "hornwort; 3 ppm, 21 days", "result": 5}, {"measurement": "controlling effect", "setting": "hornwort; 10 ppm, 3 months", "result": 5}, {"measurement": "controlling effect", "setting": "hornwort; 10 ppm, 21 days", "result": 5}, {"measurement": "Reproduction-inhibiting effect", "setting": "urikawa; 0.05%", "result": "+"}, {"measurement": "Reproduction-inhibiting effect", "setting": "urikawa; 0.1%", "result": "-"}, {"measurement": "Reproduction-inhibiting effect", "setting": "urikawa; 0.2%", "result": "-"}, {"measurement": "controlling effect", "setting": "diatoms; 1 ppm, 3 months", "result": 4}, {"measurement": "controlling effect", "setting": "diatoms; 1 ppm, 21 days", "result": 4}, {"measurement": "controlling effect", "setting": "diatoms; 3 ppm, 3 months", "result": 5}, {"measurement": "controlling effect", "setting": "diatoms; 3 ppm, 21 days", "result": 5}, {"measurement": "controlling effect", "setting": "diatoms; 10 ppm, 3 months", "result": 5}, {"measurement": "controlling effect", "setting": "diatoms; 10 ppm, 21 days", "result": 5}, {"measurement": "Reproduction-inhibiting effect", "setting": "greaterduckweed; 0.05%", "result": "-"}, {"measurement": "Reproduction-inhibiting effect", "setting": "greaterduckweed; 0.1%", "result": "-"}, {"measurement": "Reproduction-inhibiting effect", "setting": "greaterduckweed; 0.2%", "result": "-"}, {"measurement": "Reproduction-inhibiting effect", "setting": "manna grass; 0.05%", "result": "±"}, {"measurement": "Reproduction-inhibiting effect", "setting": "manna grass; 0.1%", "result": "-"}, {"measurement": "Reproduction-inhibiting effect", "setting": "manna grass; 0.2%", "result": "-"}, {"measurement": "Reproduction-inhibiting", "setting": "yamazakura; 0.05%", "result": "-"}, {"measurement": "Reproduction-inhibiting", "setting": "yamazakura; 0.1%", "result": "-"}, {"measurement": "Reproduction-inhibiting", "setting": "yamazakura; 0.2%", "result": "-"}, {"measurement": "Reproduction-inhibiting effect", "setting": "water hyacinth; 0.05%", "result": "++"}, {"measurement": "Reproduction-inhibiting effect", "setting": "water hyacinth; 0.1%", "result": "-"}, {"measurement": "Reproduction-inhibiting effect", "setting": "water hyacinth; 0.2%", "result": "-"}]}
